Key:
Conditions in all cases: 72 h
[1] = system: myeloid leukemia patient primary cells Pat.10; test: cell viability (% survival relative to DMSO control); higher = less cytotoxic
Summary of the method: (§1)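 Where an area under the curve appears, it was computed with the drc and PharmacoGx R packages from log-logistic fits. Those fits used four parameters. The underlying viability data came from CellTiter-Glo after 72 h, normalised to DMSO and 10 μM proteasome-inhibitor wells, with thawed, Ficoll-purified AML or CML patient mononuclear cells at 10,000 cells/well in RPMI 1640 with 10% FBS on 384-well plates pre-printed with 70 compounds at five tenfold concentrations (1–10,000 nM) in duplicate.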

[2] = system: myeloid leukemia patient primary cells Pat.14; test: as above
Summary of the method: as §1

[3] = system: myeloid leukemia patient primary cells Pat.1; test: as above
Summary of the method: as §1

[4] = system: myeloid leukemia patient primary cells Pat.15; test: as above
Summary of the method: as §1

[5] = system: myeloid leukemia patient primary cells Pat.13; test: as above
Summary of the method: as §1

[6] = system: myeloid leukemia patient primary cells Pat.2; test: as above
Summary of the method: as §1

[7] = system: myeloid leukemia patient primary cells Pat.4; test: as above
Summary of the method: as §1

[8] = system: myeloid leukemia patient primary cells Pat.3; test: as above
Summary of the method: as §1

[9] = system: myeloid leukemia patient primary cells Pat.8; test: as above
Summary of the method: as §1

[10] = system: myeloid leukemia patient primary cells Pat.9; test: as above
Summary of the method: as §1

[11] = system: myeloid leukemia patient primary cells Pat.12; test: as above
Summary of the method: as §1

[12] = system: myeloid leukemia patient primary cells Pat.11; test: as above
Summary of the method: as §1

[13] = system: myeloid leukemia patient primary cells Pat.5; test: as above
Summary of the method: as §1

[14] = system: myeloid leukemia patient primary cells Pat.7; test: as above
Summary of the method: as §1

[15] = system: myeloid leukemia patient primary cells Pat.6; test: as above
Summary of the method: as §1

[16] = system: HL-60; test: area under dose-response curve (viability, 1 nM-10 uM) (fraction (0-1)); higher = more sensitive
Summary of the method: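 A rescreen of the full library used HL-60 cells in RPMI 1640 with 10% FBS on 384-well plates, run in duplicate at five tenfold concentrations (1–10,000 nM). Each screen included DMSO or 100 nM of one of three metabolic inhibitors and ran 72 h at 37 °C, 5% CO2. CellTiter-Glo viability was scaled between DMSO and 10 μM proteasome-inhibitor wells. Any area under the curve comes from four-parameter log-logistic fits with drc and PharmacoGx.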

[17] = system: KG-1
Summary of the method: (§2)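 Fifteen myeloid leukaemia cell lines were seeded in RPMI 1640 at a density titrated to the linear growth range. Each line went into 384-well plates with compounds acoustically pre-printed at five tenfold doses from 1 to 10,000 nM, in duplicate, and was incubated for 72 h at 37 °C with 5% CO2. Luminescent ATP viability was normalised to vehicle and to a positive control at 10 µM. The IC50 came from four-parameter log-logistic dose–response fits.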

[18] = system: HEL
Summary of the method: as §2

[19] = system: KCL-22
Summary of the method: as §2

[20] = system: LAMA-84
Summary of the method: as §2

[21] = system: HL-60
Summary of the method: as §2

[22] = system: THP-1
Summary of the method: as §2

[23] = system: BV-173
Summary of the method: as §2

[24] = system: SHI-1
Summary of the method: as §2

[25] = system: MOLM-13
Summary of the method: as §2

[26] = system: ML-2
Summary of the method: as §2

CO[C@H]1C[C@@H]2CC[C@@H](C)[C@@](O)(O2)C(=O)C(=O)N2CCCC[C@H]2C(=O)O[C@H]([C@H](C)C[C@@H]2CC[C@@H](OC(=O)C(C)(CO)CO)[C@H](OC)C2)CC(=O)[C@H](C)/C=C(\C)[C@@H](O)[C@@H](OC)C(=O)[C@H](C)C[C@H](C)/C=C/C=C/C=C/1C [Temsirolimus]
Conditions	area under dose-response curve, co-treatment: AZD3965 100 nM	area under dose-response curve, co-treatment: DMSO vehicle	area under dose-response curve, co-treatment: GSK2194069 100 nM	area under dose-response curve, co-treatment: pictilisib 100 nM	cell viability, 1 nM [%]	cell viability, 10 nM [%]	cell viability, 100 nM [%]	cell viability, 1000 nM [%]	cell viability, 10000 nM [%]
[1]	–	–	–	–	47.2	40.6	42.5	78.8	4.58
[2]	–	–	–	–	73.7	58.7	48.6	71.6	5.69
[3]	–	–	–	–	89.3	47.4	52.9	70.1	51.8
[4]	–	–	–	–	69.7	47.8	38.4	39.2	21.8
[5]	–	–	–	–	74.5	65.6	61.8	92	55.3
[6]	–	–	–	–	79.1	69	69.6	80.6	63
[7]	–	–	–	–	75.1	50.9	53.1	59	24.4
[8]	–	–	–	–	97.6	86.7	77.1	95.1	< 0
[9]	–	–	–	–	83.3	55.6	78.2	88.4	55.5
[10]	–	–	–	–	78.2	48.1	25.1	49.6	< 0
[11]	–	–	–	–	95.8	98.4	93.6	90.6	96.4
[12]	–	–	–	–	94.5	81.9	79.7	88.4	74.4
[13]	–	–	–	–	46.4	11.5	3.45	58.7	0.265
[14]	–	–	–	–	77.4	68.2	55.9	73.9	< 0
[15]	–	–	–	–	99.3	88.2	77.1	96.8	55.5
[16]	< 0.0301	< 0.0301	< 0.0301	< 0.0301	–	–	–	–	–

Conditions	IC50 (cell viability) [nM]
[17]	2.05
[18]	1150
[19]	13.3
[20]	20.8
[21]	148
[22]	53.9
[23]	3.9
[24]	28.2
[25]	1.98
[26]	2590

C=CCN(C)CCCCCCOc1ccc(C(=O)c2ccc(Br)cc2)c(F)c1.O=C(O)/C=C/C(=O)O [Ro 48-8071 fumarate]
Conditions	area under dose-response curve, co-treatment: AZD3965 100 nM	area under dose-response curve, co-treatment: DMSO vehicle	area under dose-response curve, co-treatment: GSK2194069 100 nM	area under dose-response curve, co-treatment: pictilisib 100 nM	cell viability, 1 nM [%]	cell viability, 10 nM [%]	cell viability, 100 nM [%]	cell viability, 1000 nM [%]	cell viability, 10000 nM [%]
[1]	–	–	–	–	80.8	61.7	63.7	73.8	< 0
[2]	–	–	–	–	93.2	99.3	91.9	99.6	21
[3]	–	–	–	–	97.8	94.5	97.4	82.7	37.2
[4]	–	–	–	–	84	94.1	99.4	94.3	56.6
[5]	–	–	–	–	92.9	98.7	82.6	85.6	51.7
[6]	–	–	–	–	98.4	99.7	97.6	97.1	71.1
[7]	–	–	–	–	86.4	92	88.3	88.5	56.3
[8]	–	–	–	–	55	59.7	28.2	21.8	6.91
[9]	–	–	–	–	78.8	96.9	94.9	92.1	75.8
[10]	–	–	–	–	90.4	69.8	87.2	84.8	< 0
[11]	–	–	–	–	96.5	91.5	93.7	82.9	77.6
[12]	–	–	–	–	98.4	100	97.9	96.5	72.2
[13]	–	–	–	–	> 100	61.6	73.3	73.5	0.265
[14]	–	–	–	–	> 100	> 100	85.7	61.7	< 0
[15]	–	–	–	–	99.9	> 100	87.1	92.9	37.7
[16]	0.0549	< 0.0301	0.0331	0.112	–	–	–	–	–

Conditions	IC50 (cell viability) [nM]
[17]	6110
[18]	> 10000
[19]	> 10000
[20]	8490
[21]	5920
[22]	> 10000
[23]	1790
[24]	> 10000
[25]	> 10000
[26]	> 10000

CO[C@H]1C[C@@H]2CC[C@@H](C)[C@@](O)(O2)C(=O)C(=O)N2CCCC[C@H]2C(=O)O[C@H]([C@H](C)C[C@@H]2CC[C@@H](OCCO)[C@H](OC)C2)CC(=O)[C@H](C)/C=C(\C)[C@@H](O)[C@@H](OC)C(=O)[C@H](C)C[C@H](C)/C=C/C=C/C=C/1C [Everolimus]
Conditions	area under dose-response curve, co-treatment: AZD3965 100 nM	area under dose-response curve, co-treatment: DMSO vehicle	area under dose-response curve, co-treatment: GSK2194069 100 nM	area under dose-response curve, co-treatment: pictilisib 100 nM	cell viability, 1 nM [%]	cell viability, 10 nM [%]	cell viability, 100 nM [%]	cell viability, 1000 nM [%]	cell viability, 10000 nM [%]
[1]	–	–	–	–	34.9	31.3	34.9	41.7	11.8
[2]	–	–	–	–	90.7	53.5	96.7	59.3	17.4
[3]	–	–	–	–	88.6	56.4	74	60.2	41.2
[4]	–	–	–	–	62.3	44.6	36.8	40	22.9
[5]	–	–	–	–	82.2	82.6	74.8	79.3	43.1
[6]	–	–	–	–	82.6	83.8	74.4	82.3	68.2
[7]	–	–	–	–	64.8	57.9	47	47.3	41.9
[8]	–	–	–	–	78.6	5.05	94.1	42.3	7.24
[9]	–	–	–	–	67.6	68.8	56.4	80.7	66.5
[10]	–	–	–	–	64.2	22.3	87.7	15.7	0.492
[11]	–	–	–	–	96.2	> 100	> 100	93.7	99
[12]	–	–	–	–	90.6	83.8	89.2	87.3	70.2
[13]	–	–	–	–	49.5	20.5	23	9.25	0.912
[14]	–	–	–	–	85	68.8	99.3	79.1	2.34
[15]	–	–	–	–	96.2	92.4	99.1	87.4	53.5
[16]	< 0.0301	< 0.0301	< 0.0301	< 0.0301	–	–	–	–	–

Conditions	IC50 (cell viability) [nM]
[17]	< 1
[18]	2.74
[19]	1.21
[20]	782
[21]	3920
[22]	1.65
[23]	4.11
[24]	1.15
[25]	< 1
[26]	1530
